From patent US7416741B2, “Copper lowering treatment of inflammatory and fibrotic diseases” (The Regents of the University of Michigan, priority 2002, dated 2008)

What was measured:
TGFβ = TGFβ ELISA in brain homogenates of Tg2576 mice; assay type: in vivo, mouse; conditions: Ex 8; TM-treated Tg2576 mice
Procedure: Brain homogenates of left hemi-brains are used for detection of human Aβ40 and Aβ42 by ELISA, as previously described (J Gau J et al., Amer. J. Pathology, 160 2:731-738 […]). Homogenates are centrifuged at 7840×g for 5 minutes at 4 ° C. to remove insoluble material. A sandwich ELISA is performed on the supernatants using BAN50 as the capture antibody and either horseradish peroxidase-coupled BA-27 or BC-05 as the detection antibody for Aβ40 or Aβ42, respectively. BAN-50 is a monoclonal antibody specific for Aβ1-10. All samples are measured in triplicate. Standard curves for the ELISA are constructed using pure human Aβ40 and Aβ42 (Bachem). In addition to measurements of Aβ, a commercially available ELISA is used to detect TGFβ levels in brain homogenates of the two groups.

cancer patients = conditions: clinical phase ½ study of metastatic and advanced cancers; cited from earlier work
[1] = Body weight and hematocrit in the bleomycin mouse model; assay type: in vivo; conditions: for Weight / Hematocrit: sacrifice day 21; for protection against weight loss from bleomycin: Ex 1 Exp 2; for mean hematocrit: day 21
Procedure: Mice. Female CBA/J mice at 8-10 weeks of age were from the Jackson Laboratories (Bar Harbor, Me.). These mice weighed an average of 21.4 g at the start of experiments, with a standard deviation of 1.7 g.
Bleomycin treatment. This was undertaken on day 0 by endotracheal instillation through the oral cavity after exposure of the airway by pulling the tongue. Each mouse received 0.001 units of bleomycin (Bristol-Myers, Evansville, Ind.)/gm body weight in 30 μl of sterile saline, while control mice received an equal volume of sterile saline only.
TM treatment experiments. TM was given in 0.25 ml of water by intragastric gavage once daily, in the doses and times indicated in the various studies as described below.
There were four experimental groups of five to seven mice each. Group 1 received bleomycin, group 2 was a saline control, group 3 received bleomycin and TM therapy, and group 4 was a TM therapy control. The TM was given in a dose of 0.7 mg/mouse/day beginning 7 days prior to bleomycin treatment. During days 9 to 11 after bleomycin, the TM-treated mice received 1.2 mg of TM daily, to ensure adequate lowering of copper levels, and then received 0.7 mg daily for the duration of the study. The mice were sacrificed 21 days after bleomycin treatment.
In this experiment, the effect of TM at different doses after bleomycin administration was examined. Experimental groups of four bleomycin-treated and two to four control (non-bleomycin treated) mice were given varying doses of TM. Initially, All TM-treated mice received identical loading doses of 1.2 mg/mouse/day for 3 days (minus 5 to minus 3 days) prior to bleomycin administration. From that point on, groups of mice were given 0.3, 0.5, 0.7, or 0.9 mg of TM/mouse/day until sacrifice at day 21 after bleomycin treatment. A group of four bleomycin treated and a group of four non-bleomycin treated mice received no TM.
Three experiments were carried out. Experiment 1 comprised four groups of three mice each. Group 1 received bleomycin only, group 2 received bleomycin and TM therapy, group 3 received saline in the trachea rather than bleomycin, and group 4 received TM therapy only. The mice in groups 2 and 4 each received 1.2 mg of TM per day for four days prior to bleomycin, and then were given 0.9 mg TM per day until sacrifice at seven days after bleomycin.
Experiment 2 comprised four groups of five mice each. The four groups were assigned as in experiment 1 to bleomycin, bleomycin and TM, saline rather than bleomycin, and TM only. Groups 2 and 4 were started on TM five days after bleomycin treatment at a dose of 1.2 mg per day for four days, and then 0.9 mg per day until sacrifice at day 21.

rodent cancer models = conditions: five different rodent cancer models; cited from earlier work
Lysyl oxidase = Lysyl oxidase in the lungs, bleomycin model; assay type: in vivo, mouse; conditions: Ex 2 Exp 1; TM treated vs non-TM treated animals
Aβ40 and Aβ42 = Aβ40 and Aβ42 ELISA in brain homogenates of Tg2576 mice; assay type: in vivo; conditions: Ex 8, TM 0.7 mg/mouse daily from 9 to 15 months of age
Procedure: A study is carried out in an mouse model of Alzheimer's disease. The mouse model is the Tg2576 mouse model, as described above in the Description of the Invention and in further detail in Gau et al., 2002 (J Gau et al., Amer. J. Pathology, 160(2):731-738 [2002]; J Q Trojanowski, Amer. J. Pathology, 160(2):409-411 [2002]). These mice begin developing amyloid plaques at about 9 months of age and plaques are well developed by 15 months. The transgenic mice also develop progressive age-dependent cognitive and behavioral abnormalities described in the background.
Forty female Tg2576 mice, aged 3 months, are purchased from Tagonic Inc, and grown until 9 months of age, at which time they are divided into two groups of 20. One group begins treatment with TM at 9 months of age, and are treated until sacrifice at age 15 months. […] Cp is determined by an oxidase method. […] The weight of the mice is determined weekly. […]
After 6 months of treatment with water or TM, all mice in both groups are sacrificed painlessly, and the brains removed and divided sagitally. […] Analysis of amyloid plaque load in mouse brains is determined by light-microscopic semi-quantitative analysis of brain sections. Subtle effects of treatment are measured by a more rigorous quantitative analysis of amyloid plaques in brain sections to detect a significant difference. […]

## [SH-].[SH-].[S]=[Mo]=[S] [TM, tetrathiomolybdate]
TGFβ
  levels of TGFβ in brain homogenates: significant reduction
Cancer patients
  average freedom from progression in evaluable patients: 11 months
[1]; Ex 1 Exp 1, Bleomycin/TM group, TM 0.7 mg/mouse/day gavage from 7 days before bleomycin
  Weight: 21.2 ± 0.8 g
[1]; Ex 1 Exp 1, Bleomycin/TM group
  Hematocrit: 39.7 ± 2.6
[1]; Ex 1 Exp 1, TM alone (group 4)
  effect of TM alone on weight: tended to produce some weight loss
[1]; Ex 1 Exp 1, TM only group (no bleomycin), 0.7 mg/mouse/day
  Weight: 20.4 ± 1.0 g
[1]; Ex 1 Exp 1, TM only group
  Hematocrit: 44.1 ± 1.0
[1]; Ex 1 Exp 1, bleomycin/TM group
  protection against bleomycin induced weight loss: protected against some of the bleomycin induced weight loss
[1]; 0.3 mg TM dose
  protection against weight loss from bleomycin: only slightly protective
[1]; 0.5 mg TM dose
  protection against weight loss from bleomycin: intermediately protective
[1]; 0.7 mg TM dose
  protection against weight loss from bleomycin: intermediately protective
[1]; 0.9 mg TM dose
  protection against weight loss from bleomycin: fully protective
[1]; Ex 2 Exp 1, sacrifice day 7
  mean weight in the bleomycin/TM group: almost exactly the same as the saline control group
[1]; Ex 2 Exp 2, TM group
  mean hematocrit: 43.8%
[1]; Ex 2 Exp 2, bleomycin/TM group, TM started 5 days after bleomycin
  mean weight at the time of sacrifice: 19.6 g
[1]; Ex 2 Exp 2, bleomycin/TM group
  mean hematocrit: 44.3%
Rodent cancer models
  inhibition of tumor growth: dramatic effects on inhibition of tumor growth
Lysyl oxidase
  lysyl oxidase activity in the lungs: not inhibited
Aβ40 and Aβ42
  mean reduction in Aβ40 and Aβ42 levels in brain homogenates: up to 50%
